# Calls of active or inactive are those of the source. For most assays here, no stated cut-off is given here; in the data, actives have a measured EC50 and inactives only a lower limit.
# Columns and labels:
# Beta-galactosidase = Beta-galactosidase (Escherichia coli, UniProt Q8VNN2); assay: PubChem AID 485352; type: functional
# BJ [1] = assay: cytotoxicity toward Ras-transformed BJeLR fibroblasts, dose response, cell-based, alamar blue fluorescence, cherrypicked samples (AID 2631); type: functional; conditions: Homo sapiens;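 further: confirmatory dose-response assay in RAS-dependent BJ fibroblasts engineered with TERT, LT and ST, with cytotoxicity read by fluorescence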
# [2] = cytotoxicity in HEK-293T cells, dose response, cytotoxicity control for TCR NF-kB inhibitor project, luminescence, T-cell screen hits (AID 489026); type: functional, cell-based;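 further: cells exposed to compound about 14 hours before the viability readout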
# [3] = system: Streptococcus sp. 'group A'; assay: growth inhibition of control SK(-) GAS strain, dose response, counter-screen for streptokinase expression inhibitor project, luminescence, kanamycin, BacTiterGlo, confirmation (AID 1900); type: functional, organism-based
# BJ [4] = assay: cells; type: functional, cell-based; conditions: Homo sapiens
# [5] = biological target: T1, Apoptotic protease-activating factor 1 (Homo sapiens, UniProt O14727); type: functional
# T1 sequence (O14727 whole entry): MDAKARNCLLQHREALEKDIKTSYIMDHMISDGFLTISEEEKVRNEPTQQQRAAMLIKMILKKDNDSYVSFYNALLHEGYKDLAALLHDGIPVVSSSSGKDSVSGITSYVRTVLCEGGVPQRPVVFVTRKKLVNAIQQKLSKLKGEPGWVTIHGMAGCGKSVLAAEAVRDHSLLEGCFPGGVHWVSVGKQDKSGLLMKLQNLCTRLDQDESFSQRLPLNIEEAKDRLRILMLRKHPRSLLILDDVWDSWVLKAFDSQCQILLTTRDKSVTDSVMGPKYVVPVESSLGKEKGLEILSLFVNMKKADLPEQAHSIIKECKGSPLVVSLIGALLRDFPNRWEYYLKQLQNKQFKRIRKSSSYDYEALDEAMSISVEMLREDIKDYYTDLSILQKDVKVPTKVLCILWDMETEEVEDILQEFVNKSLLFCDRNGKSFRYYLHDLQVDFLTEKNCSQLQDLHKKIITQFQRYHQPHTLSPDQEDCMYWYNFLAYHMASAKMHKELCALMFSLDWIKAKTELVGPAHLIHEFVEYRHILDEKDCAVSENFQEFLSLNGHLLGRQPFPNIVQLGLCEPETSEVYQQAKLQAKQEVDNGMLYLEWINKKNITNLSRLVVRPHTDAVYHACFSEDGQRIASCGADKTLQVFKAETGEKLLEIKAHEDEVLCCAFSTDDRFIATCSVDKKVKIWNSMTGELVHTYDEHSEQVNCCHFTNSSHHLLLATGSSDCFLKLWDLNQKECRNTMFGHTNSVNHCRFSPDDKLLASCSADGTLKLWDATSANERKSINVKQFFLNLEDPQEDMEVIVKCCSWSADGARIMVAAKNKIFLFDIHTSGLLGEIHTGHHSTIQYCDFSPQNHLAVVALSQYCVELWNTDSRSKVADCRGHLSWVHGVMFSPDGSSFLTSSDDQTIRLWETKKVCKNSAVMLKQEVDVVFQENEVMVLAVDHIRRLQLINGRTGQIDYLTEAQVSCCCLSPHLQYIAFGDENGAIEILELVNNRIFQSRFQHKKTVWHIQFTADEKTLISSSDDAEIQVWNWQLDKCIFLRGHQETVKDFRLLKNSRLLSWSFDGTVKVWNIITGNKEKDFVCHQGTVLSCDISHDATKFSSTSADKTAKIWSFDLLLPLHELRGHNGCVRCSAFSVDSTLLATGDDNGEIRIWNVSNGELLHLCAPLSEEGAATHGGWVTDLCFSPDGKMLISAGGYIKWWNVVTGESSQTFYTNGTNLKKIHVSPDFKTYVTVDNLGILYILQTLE
# BJ [6] = assay: cytotoxicity toward BJ-TERT-LT-ST fibroblasts, dose response, cell-based, RAS-independent, luminescence (AID 1935); type: functional; conditions: Homo sapiens;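 further: BJ fibroblasts immortalized with TERT plus LT and ST oncogenes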
# [7] = biological target: Intestinal-type alkaline phosphatase (Mus musculus, UniProt P24822); assay: mouse intestinal alkaline phosphatase activators, dose response, biochemical, luminescence, uHTS hits (AID 488783); type: functional
# [8] = biological target: T2, Alkaline phosphatase, tissue-nonspecific isozyme (Homo sapiens, UniProt P05186); assay: TNAP enzyme activators, dose response, selectivity assay for mouse IAP activator project, biochemical, TNAP isozyme, mouse IAP uHTS hits (AID 488880); type: functional
# T2 sequence (P05186 whole entry): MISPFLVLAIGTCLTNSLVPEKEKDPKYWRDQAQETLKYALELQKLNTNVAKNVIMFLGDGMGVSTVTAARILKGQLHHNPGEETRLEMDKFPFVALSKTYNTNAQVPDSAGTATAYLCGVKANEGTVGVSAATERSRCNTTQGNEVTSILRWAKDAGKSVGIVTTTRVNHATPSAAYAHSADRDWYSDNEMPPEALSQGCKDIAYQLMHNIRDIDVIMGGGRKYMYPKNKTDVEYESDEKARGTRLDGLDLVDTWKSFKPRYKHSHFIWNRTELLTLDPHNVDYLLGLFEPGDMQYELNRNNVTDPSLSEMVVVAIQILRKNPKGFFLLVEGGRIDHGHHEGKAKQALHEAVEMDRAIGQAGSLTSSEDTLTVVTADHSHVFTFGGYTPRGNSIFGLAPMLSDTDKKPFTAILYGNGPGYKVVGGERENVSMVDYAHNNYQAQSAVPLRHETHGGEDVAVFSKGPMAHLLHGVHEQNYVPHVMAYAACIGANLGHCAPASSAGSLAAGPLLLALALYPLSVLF
# [9] = biological target: Beta-adrenergic receptor kinase 1 (Homo sapiens, UniProt P25098); assay: aptamer displacement from bead-bound GRK2 – biochemical, cherry pick 1, bead flow cytometry, dose response (AID 504500)
# Streptococcus = assay: Group A Streptococcus viability loss, dose response, counter-screen for streptokinase expression inhibitor project, luminescence, BacTiterGlo (AID 1915); type: functional, organism-based;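 further: potency for reduction of bacterial viability or growth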
# [10] = biological target: Serine/threonine-protein phosphatase (Candida dubliniensis (strain CD36 / CBS 7987 / NCPF 3949 / NRRLY-17841) (Yeast), UniProt B9W6M3); assay: calcineurin pathway inhibitors in yeast reporter, dose response, S. cerevisiae, CDRE-lacZ, luminescence, secondary (AID 2388); type: functional, cell-based;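 further: yeast reporter cells carrying a calcineurin-responsive lacZ construct stimulated with calcium chloride; luminescent beta-galactosidase reporter signal in whole cells rather than isolated phosphatase activity; potency for inhibition where a drop in reporter signal means calcineurin blockade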
# [11] = biological target: Intestinal-type alkaline phosphatase (Homo sapiens, UniProt P09923); assay: activation of human intestinal alkaline phosphatase – biochemical, dose response (AID 488873); type: functional
# [12] = NIH-3T3 fibroblast cytotoxicity, dose response, cytotoxicity control, cell-based, fluorescence, Alamar Blue, secondary assay (AID 2327); type: functional;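 further: NIH-3T3 mouse fibroblasts cultured with fluconazole at 8 µg/mL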
# INS1 = assay: beta cell apoptosis inhibitors, cytokine rescue, dose response, luminescence, retest (AID 449756); type: functional, cell-based; conditions: Rattus norvegicus;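 further: cell death triggered by IL-1 beta plus TNF-alpha plus IFN-gamma mixture; protective hits raise ATP signal compared with cytokine alone wells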
# [13] = biological target: Type-1 angiotensin II receptor (Homo sapiens, UniProt P30556); assay: AT1 receptor antagonists, dose response, selectivity assay for APJ receptor antagonist project, cell-based, uHTS hits (AID 463214); type: functional;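 further: antagonist potency against angiotensin II stimulated AT1 response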
# [14] = C. albicans growth with fluconazole, confirmation, fluorescence, retest (AID 2467); type: functional, cell-based
# [15] = cytotoxicity toward DRD oncogenic fibroblasts, dose response, cell-based, non-viral oncogenic, luminescence (AID 1934); type: functional; conditions: Homo sapiens
# Streptokinase A = biological target: T3, Streptokinase A (Streptococcus pyogenes serotype M1, UniProt P10520); assay: S. pyogenes streptokinase expression inhibitors, potency, dose response, plasminogen activation absorbance, OD405 (AID 1914); type: functional, Streptococcus pyogenes M1 GAS;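 further: secreted streptokinase activity via plasminogen activation per viability signal from cell pellet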
# T3 sequence (P10520 whole entry): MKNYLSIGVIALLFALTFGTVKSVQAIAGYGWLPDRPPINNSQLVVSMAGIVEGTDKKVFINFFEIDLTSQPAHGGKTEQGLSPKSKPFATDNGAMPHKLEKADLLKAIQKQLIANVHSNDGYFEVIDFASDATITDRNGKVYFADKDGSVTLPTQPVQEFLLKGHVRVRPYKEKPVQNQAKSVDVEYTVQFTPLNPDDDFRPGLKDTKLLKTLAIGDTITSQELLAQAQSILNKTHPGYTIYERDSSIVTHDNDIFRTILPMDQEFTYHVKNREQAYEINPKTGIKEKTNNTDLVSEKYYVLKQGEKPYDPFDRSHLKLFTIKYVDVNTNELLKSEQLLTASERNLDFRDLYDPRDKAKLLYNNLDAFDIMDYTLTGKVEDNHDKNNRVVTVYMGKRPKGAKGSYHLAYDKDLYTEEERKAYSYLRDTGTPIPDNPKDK
# [16] = biological target: ATP-dependent molecular chaperone HSP82 (Candida albicans (strain WO-1) (Yeast), UniProt C4YTQ8); assay: loss of DOC-induced GRE-beta-galactosidase reporter signal, dose response, Hsp90 inhibitor project, S. cerevisiae, luminescence (AID 2400); type: functional, cell-based;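 further: beta-galactosidase luminescence from glucocorticoid response element reporter as proxy for Hsp90 function; inhibitor potency where signal loss means Hsp90 inhibition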
# BJ [17] = assay: cytotoxicity toward BJ-TERT fibroblasts, dose response, cell-based, RAS-independent, luminescence (AID 1933); type: functional; conditions: Homo sapiens
# [18] = biological target: T4, Sphingosine 1-phosphate receptor 4 (Homo sapiens, UniProt O95977); assay: Late-stage fluorescence-based dose-response cell-based counterscreen assay to identify agonists of the Sphingosine 1-Phosphate Receptor 3 (S1P3): Sphingosine 1-Phosphate Receptor 4 (S1P4) agonist assay.; type: functional
# T4 sequence (O95977 whole entry): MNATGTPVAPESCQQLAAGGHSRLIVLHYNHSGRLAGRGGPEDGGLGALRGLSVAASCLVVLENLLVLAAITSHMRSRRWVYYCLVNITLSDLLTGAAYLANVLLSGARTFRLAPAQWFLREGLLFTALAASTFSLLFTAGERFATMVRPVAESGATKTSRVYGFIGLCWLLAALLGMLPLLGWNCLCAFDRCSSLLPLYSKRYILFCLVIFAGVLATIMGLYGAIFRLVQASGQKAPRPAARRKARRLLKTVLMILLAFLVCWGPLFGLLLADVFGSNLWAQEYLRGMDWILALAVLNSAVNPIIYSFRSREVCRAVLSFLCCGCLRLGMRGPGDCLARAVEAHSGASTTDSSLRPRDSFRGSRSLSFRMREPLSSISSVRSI
# [19] = biological target: Sphingosine 1-phosphate receptor 2 (Homo sapiens, UniProt O95136); assay: Late-stage fluorescence-based dose-response cell-based counterscreen assay to identify agonists of the Sphingosine 1-Phosphate Receptor 3 (S1P3): Sphingosine 1-Phosphate Receptor 2 (S1P2) agonist assay.; type: functional
# [20] = biological target: T5, V-type proton ATPase subunit c' (Saccharomyces cerevisiae S288c, UniProt P32842); assay: Dose Response of Small Molecules that Regulate V-ATPase Proton Transport in Yeast using pHLuorin, Powder Set1.; type: functional; conditions: read-out: EC50_MICROM
# [21] = biological target: T5, V-type proton ATPase subunit c'; assay: Dose Response with BCECF Assay for V-ATPase inhibitors that increase vacuolar pH, Powder Set 1.; type: functional; conditions: read-out: EC50_MICROM
# [22] = inhibitors of firefly luciferase expression or activity, dose response, H4 neuroglioma cells, luminescence (AID 1990); type: functional, cell-based
# HEK293 = assay: inhibitors of LMP1-driven NF-kB reporter, dose response, cell-based, HEK293, luciferase, cherry-pick (AID 588343); type: functional; conditions: Homo sapiens
# [23] = Luminescence Cell-Based Dose Response HTS to Identify Inhibitors of 5'UTR Stem-Loop Driven Prion Protein mRNA Translation in H4 Neuroglioblastoma Cells. [Related pubchem assays: 1827 (Project Summary), 1813 (Primary HTS)]; type: functional
# [24] = inhibitors of SNCA 5'UTR-driven reporter translation, confirmation, H4 neuroglioma cells, luminescence (AID 1988); type: functional, cell-based
# [25] = biological target: 26S proteasome non-ATPase regulatory subunit 14 (Homo sapiens, UniProt O00487); assay: inhibition of proteasome subunit RPN11 – biochemical, fluorescence polarization, uHTS hits, confirmation (AID 602368); type: functional
# Prothrombin = Prothrombin (Bos taurus, UniProt P00735); assay: thrombin inhibition, dose response, biochemical, fluorescence polarization, uHTS hits (AID 602369); type: functional
# [26] = biological target: 72 kDa type IV collagenase (Homo sapiens, UniProt P08253); assay: Dose Response validation of uHTS RPN11 inhibitor hits using a MMP-2 Fluorescence assay.; type: functional
# [27] = biological target: Serine/threonine-protein kinase BRSK1 (Homo sapiens, UniProt Q8TDC3); type: functional;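 further: measured within a kinome-wide kinase panel, with the target listed as KIAA1811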
# Aurora kinase B = Aurora kinase B (Homo sapiens, UniProt Q96GD4); type: functional
# Chain of Aurora kinase B (Q96GD4 whole entry): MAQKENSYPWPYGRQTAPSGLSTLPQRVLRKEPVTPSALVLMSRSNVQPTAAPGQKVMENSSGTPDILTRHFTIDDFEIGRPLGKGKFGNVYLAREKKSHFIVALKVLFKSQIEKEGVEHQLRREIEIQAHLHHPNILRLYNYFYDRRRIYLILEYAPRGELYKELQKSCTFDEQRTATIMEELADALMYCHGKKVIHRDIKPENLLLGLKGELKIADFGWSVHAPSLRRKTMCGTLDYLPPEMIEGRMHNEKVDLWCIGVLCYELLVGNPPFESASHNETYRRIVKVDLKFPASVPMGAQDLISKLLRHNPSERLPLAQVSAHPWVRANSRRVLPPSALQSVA
# T5 sequence (P32842 whole entry): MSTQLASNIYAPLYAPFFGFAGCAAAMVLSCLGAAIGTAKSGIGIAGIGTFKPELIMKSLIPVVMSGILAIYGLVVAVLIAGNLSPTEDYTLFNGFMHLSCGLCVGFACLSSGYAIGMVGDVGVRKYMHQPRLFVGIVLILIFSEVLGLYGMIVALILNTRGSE
# Chain of Beta-adrenergic receptor kinase 1 (P25098 whole entry): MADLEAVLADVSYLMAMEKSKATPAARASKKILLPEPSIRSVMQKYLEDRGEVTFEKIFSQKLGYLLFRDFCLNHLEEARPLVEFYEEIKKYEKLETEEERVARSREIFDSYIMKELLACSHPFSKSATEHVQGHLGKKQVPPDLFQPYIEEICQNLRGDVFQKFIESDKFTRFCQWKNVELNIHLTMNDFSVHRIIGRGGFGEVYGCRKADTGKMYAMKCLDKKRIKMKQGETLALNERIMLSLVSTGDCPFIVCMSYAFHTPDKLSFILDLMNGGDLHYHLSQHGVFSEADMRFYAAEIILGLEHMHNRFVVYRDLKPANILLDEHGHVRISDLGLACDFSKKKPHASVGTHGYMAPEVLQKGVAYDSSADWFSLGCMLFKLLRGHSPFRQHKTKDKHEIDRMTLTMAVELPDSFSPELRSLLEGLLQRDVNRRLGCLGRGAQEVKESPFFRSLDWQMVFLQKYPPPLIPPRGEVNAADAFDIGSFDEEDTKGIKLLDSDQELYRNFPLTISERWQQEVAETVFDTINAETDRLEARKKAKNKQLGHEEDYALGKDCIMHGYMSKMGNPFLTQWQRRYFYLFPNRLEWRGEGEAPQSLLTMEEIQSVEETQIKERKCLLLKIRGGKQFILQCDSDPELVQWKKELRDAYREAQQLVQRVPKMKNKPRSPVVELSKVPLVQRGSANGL
# Chain of Sphingosine 1-phosphate receptor 2 (O95136 whole entry): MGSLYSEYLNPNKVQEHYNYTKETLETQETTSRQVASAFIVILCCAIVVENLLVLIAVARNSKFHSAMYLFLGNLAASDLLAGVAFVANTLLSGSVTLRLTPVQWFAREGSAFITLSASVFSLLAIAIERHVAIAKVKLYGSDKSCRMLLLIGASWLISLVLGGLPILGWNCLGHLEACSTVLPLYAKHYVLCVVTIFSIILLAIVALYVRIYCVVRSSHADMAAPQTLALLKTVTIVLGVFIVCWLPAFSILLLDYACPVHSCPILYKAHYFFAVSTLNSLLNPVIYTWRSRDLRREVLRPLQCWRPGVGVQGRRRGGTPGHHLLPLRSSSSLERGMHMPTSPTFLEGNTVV
# Chain of ATP-dependent molecular chaperone HSP82 (C4YTQ8 whole entry): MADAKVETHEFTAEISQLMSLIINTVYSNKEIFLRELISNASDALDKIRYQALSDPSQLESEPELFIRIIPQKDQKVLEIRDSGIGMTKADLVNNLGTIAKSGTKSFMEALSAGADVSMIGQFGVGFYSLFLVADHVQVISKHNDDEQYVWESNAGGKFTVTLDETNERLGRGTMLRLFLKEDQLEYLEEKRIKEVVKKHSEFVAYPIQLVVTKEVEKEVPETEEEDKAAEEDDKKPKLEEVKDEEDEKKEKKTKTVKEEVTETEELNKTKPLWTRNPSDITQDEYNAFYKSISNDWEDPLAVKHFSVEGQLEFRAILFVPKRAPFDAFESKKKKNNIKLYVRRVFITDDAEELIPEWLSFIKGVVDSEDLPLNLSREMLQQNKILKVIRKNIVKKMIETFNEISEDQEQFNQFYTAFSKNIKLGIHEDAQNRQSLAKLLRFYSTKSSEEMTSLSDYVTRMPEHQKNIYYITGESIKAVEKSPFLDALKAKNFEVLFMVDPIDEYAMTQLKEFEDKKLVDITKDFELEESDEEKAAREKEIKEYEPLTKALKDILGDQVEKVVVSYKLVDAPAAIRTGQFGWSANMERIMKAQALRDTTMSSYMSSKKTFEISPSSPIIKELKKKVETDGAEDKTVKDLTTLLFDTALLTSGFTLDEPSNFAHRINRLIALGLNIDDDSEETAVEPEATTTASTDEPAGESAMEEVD
# Chain of Serine/threonine-protein phosphatase (B9W6M3 whole entry): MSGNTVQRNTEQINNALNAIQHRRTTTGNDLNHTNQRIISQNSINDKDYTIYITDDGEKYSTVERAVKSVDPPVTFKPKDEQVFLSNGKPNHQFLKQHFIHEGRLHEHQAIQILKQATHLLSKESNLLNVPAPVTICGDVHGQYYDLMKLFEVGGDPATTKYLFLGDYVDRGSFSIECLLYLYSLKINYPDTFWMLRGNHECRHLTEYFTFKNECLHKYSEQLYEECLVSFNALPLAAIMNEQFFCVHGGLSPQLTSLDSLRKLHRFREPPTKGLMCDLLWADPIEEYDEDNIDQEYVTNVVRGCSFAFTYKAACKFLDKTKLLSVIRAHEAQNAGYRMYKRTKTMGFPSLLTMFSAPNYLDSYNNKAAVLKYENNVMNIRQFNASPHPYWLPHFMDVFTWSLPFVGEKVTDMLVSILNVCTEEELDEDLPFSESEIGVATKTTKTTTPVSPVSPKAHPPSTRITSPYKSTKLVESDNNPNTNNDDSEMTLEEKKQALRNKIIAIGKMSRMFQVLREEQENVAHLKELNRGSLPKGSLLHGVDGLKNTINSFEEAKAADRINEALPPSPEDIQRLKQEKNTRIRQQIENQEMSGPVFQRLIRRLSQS
# Chain of Intestinal-type alkaline phosphatase (Mus musculus, UniProt P24822) (P24822 whole entry): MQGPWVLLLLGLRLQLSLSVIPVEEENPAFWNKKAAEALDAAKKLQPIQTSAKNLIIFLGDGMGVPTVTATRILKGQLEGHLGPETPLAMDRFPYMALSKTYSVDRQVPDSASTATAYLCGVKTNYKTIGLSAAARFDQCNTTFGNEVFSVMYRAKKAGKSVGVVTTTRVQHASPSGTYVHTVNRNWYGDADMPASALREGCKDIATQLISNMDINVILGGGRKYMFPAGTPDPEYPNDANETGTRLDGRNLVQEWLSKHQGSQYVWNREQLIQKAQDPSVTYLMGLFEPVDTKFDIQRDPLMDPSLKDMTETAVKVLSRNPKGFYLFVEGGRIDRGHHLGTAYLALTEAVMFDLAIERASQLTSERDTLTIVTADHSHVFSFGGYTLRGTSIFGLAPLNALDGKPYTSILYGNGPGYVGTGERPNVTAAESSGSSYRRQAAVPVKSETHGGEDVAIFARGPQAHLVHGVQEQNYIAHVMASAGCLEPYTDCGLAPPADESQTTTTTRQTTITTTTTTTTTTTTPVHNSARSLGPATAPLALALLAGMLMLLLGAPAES
# Chain of 26S proteasome non-ATPase regulatory subunit 14 (O00487 whole entry): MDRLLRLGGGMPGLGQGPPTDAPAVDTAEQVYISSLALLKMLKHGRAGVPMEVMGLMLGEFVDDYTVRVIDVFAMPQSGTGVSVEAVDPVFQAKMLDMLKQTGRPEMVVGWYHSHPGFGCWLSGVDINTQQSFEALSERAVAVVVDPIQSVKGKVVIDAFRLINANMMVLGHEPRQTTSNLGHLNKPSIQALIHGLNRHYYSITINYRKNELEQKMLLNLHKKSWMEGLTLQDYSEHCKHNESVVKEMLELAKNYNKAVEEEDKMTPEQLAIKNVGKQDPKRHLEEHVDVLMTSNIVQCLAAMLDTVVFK
# Chain of Intestinal-type alkaline phosphatase (Homo sapiens, UniProt P09923) (P09923 whole entry): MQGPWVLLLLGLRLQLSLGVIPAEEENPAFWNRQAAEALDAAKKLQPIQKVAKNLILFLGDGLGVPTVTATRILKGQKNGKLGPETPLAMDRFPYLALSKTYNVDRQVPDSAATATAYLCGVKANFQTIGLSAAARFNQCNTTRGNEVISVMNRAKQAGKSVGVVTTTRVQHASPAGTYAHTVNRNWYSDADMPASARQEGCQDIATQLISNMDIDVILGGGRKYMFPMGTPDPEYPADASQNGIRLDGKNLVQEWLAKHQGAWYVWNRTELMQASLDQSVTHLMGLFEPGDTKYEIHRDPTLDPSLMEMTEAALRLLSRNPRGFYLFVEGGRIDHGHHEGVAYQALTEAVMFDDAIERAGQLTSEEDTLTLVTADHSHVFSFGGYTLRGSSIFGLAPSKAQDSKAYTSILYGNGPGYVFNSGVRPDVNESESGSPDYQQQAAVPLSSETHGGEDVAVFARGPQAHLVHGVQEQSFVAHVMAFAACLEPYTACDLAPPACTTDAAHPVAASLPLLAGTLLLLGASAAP
# Chain of 72 kDa type IV collagenase (P08253 whole entry): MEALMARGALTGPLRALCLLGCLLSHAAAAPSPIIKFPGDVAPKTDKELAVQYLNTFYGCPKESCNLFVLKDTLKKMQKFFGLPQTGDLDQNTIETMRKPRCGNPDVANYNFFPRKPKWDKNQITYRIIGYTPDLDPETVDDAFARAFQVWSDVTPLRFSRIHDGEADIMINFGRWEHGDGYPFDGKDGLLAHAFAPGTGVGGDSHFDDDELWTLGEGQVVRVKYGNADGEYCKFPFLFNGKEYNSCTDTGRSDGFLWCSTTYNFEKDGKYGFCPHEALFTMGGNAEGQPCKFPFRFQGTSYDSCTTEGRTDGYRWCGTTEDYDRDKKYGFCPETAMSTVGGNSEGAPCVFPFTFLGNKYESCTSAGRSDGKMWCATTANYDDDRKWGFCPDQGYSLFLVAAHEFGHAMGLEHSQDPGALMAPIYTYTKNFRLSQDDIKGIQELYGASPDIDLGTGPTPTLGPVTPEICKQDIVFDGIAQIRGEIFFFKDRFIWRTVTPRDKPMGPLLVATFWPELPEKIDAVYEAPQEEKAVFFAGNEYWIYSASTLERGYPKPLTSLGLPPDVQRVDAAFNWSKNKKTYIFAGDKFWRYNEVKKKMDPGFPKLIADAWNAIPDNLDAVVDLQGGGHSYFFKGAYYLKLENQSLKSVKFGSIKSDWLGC
structure (smiles),measurement,setting,value
CCN1/C(=C/c2ccc3cc(C)ccc3[n+]2CC)Sc2ccc3sccc3c21,EC50,Beta-galactosidase,> 40 µM (inactive)
same,EC50,BJ [1],0.37 µM (inconclusive)
same,IC50,[2],> 80 µM (inactive)
same,EC50,[3],3.29 µM (active)
same,EC50,BJ [4],0.966 µM (inconclusive)
same,IC50,[5],> 100 µM (inactive)
same,EC50,BJ [6],1.23 µM (inconclusive)
same,EC50,[7],35.5 µM (active)
same,EC50,[8],60.6 µM (active)
same,EC50,[9],0.12 µM (active)
same,EC50,Streptococcus,4.44 µM (active)
same,EC50,[10],> 180 µM (inactive)
same,EC50,[11],61.8 µM (active)
same,EC50,[12],21.1 µM (active)
same,AC50,INS1,< 0.195 µM (active)
same,IC50,[13],> 40 µM (not active)
same,EC50,[14],0.046 µM (active)
same,EC50,[15],1.45 µM (inconclusive)
same,EC50,Streptokinase A,> 150 µM (not active)
same,EC50,[16],32 µM (active)
same,EC50,BJ [17],1.17 µM (inconclusive)
O=C(c1cc(C2CC2)on1)N(C1CCCCC1)C1CCCC1,EC50,[18],> 50 µM (inactive)
same,EC50,[19],> 50 µM (inactive)
O=C(c1ccc([N+](=O)[O-])o1)N1CCN(c2ccc(C(F)(F)F)cn2)CC1,EC50,[20],9.82 µM (active)
same,EC50,[21],1.59 µM (active)
COc1ccc(Nc2oc(COc3ccccc3OC)nc2C#N)cc1,EC50,[22],7.69 µM (active)
same,AC50,HEK293,6.17 µM (active)
same,EC50,[23],11 µM (active)
same,EC50,[24],6.17 µM (active)
COc1cc(NC(=O)CCn2c(=S)[nH]c3ccccc3c2=O)cc(OC)c1OC,IC50,[25],74.1 µM (active)
same,IC50,Prothrombin,> 100 µM (inactive)
same,IC50,[26],4.5 µM (active)
CCc1cccc2c1n(CC)c(=N)n2CC(=O)c1ccc(Br)cc1,Ki,[27],2 µM (active)
same,Ki,Aurora kinase B,2.51 µM (active)
